Source: patent publication US20140221468A1, “Compounds that Modulate Store Operated Calcium Channels” (The Board of Trustees of the Leland Stanford Junior …, priority 2010, published 2014)

Columns and labels:
[1] = test system: SOC; experiment: Fura2-AM calcium imaging in HEK293 cells; type: cell-based; conditions: for effect on intracellular calcium levels, post SOC activation treatment: applied after ER store depletion, at minute 510 of imaging
Method: Calcium imaging was utilized for further characterization of the compounds and analogs. Using Fura2-AM, a known ratiometric calcium indicator, SOC dependent intracellular calcium rise and lack thereof was measured after treatment of our compounds (FIG. 3A-B). […] 1 minute before treatment of Thapsigargin.
This observation was in line with the previous luciferase assays and confirmed the ability of these compounds to inhibit SOC.
LaCl, a general blocker of divalent channels, was also used as a comparison for the post treatment experiment. […] HEK293 cells were treated with DMSO (black), LaCl at 1 uM (red), AnCoA4 at 50 uM (orange), and BiochaninA at 50 uM (green) at minute 510 of the calcium imaging. The intracellular calcium levels quickly drop after LaCl treatment whereas the compound treatment had no effect on the calcium levels.imaging.

[2] = target: SOC; experiment: NFAT coupled luciferase assay (NFAT-luc) for functional inhibition of SOC; type: cell-based; conditions: Jurkat T cells pretreated 30 minutes, activated by thapsigargin (TG) and PMA; read-out: EC50, NFAT-luc assay dose response
Method: To evaluate the ability of these compounds to inhibit SOC, a NFAT coupled luciferase assay was utilized as a functional secondary screen (FIG. 2A). This assay allows the monitoring of the IL2 promoter dependent production of luciferase that is directly activated by SOC through dephosphorylation of NFAT in T lymphocytes. This assay requires treatment of PMA, a PKC agonist, in parallel with SOC activation. Jurkat T cells were pretreated with each of the 51 compounds for 30 minutes and then activated by treatment of thapsigargin (TG) and PMA. TG depletes the ER stores by inhibiting the SERCA pumps that are responsible for refilling these stores with calcium. This process in turn activates SOC currents.
Fifty one compounds identified in the binding assay were tested by NFAT-luc assay to evaluated their SOC inhibitory properties (top). Renilla-luc was also monitored as an internal control of viability of the cells (bottom).
To further examine the hits produced from the secondary luciferase screen, four compounds AnCoA4, AnCoA5, AnCoG4, and AnCoF6 were selected (FIGS. 2B, C, D). The Dose response curve calculated from FIG. 2B is shown in FIG. 2C with a calculated EC50 equal to 0.9 μM.

[3] = test system: jurkat T lymphocytes; experiment: qRT PCR of T and B lymphocyte activating genes in jurkat T lymphocytes; type: cell-based, human
Method: The ability of AnCoA4 to inhibit activation of jurkat T lymphocytes was investigated (FIG. 4A). As IL2 gene production was previously investigated indirectly using a luciferase assay, the production of 83 more genes was monitored using real time quantitative PCR (qRT PCR). […] Jurkat T cells were treated with DMSO and AnCoA4 30 minutes before activation with PHA. Total RNA was extracted after 4 hours. […] Cells were pretreated with AnCoA4 30 minutes before activation with PHA or thapsigargin plus PMA for various time length of activation.
The ability of the AnCoA4 alone for independent up regulation of IL2 gene was also tested and no effects were observed.

[4] = 50 uM pretreatment for 30 minutes, then PHA activation, qRT PCR

COc1cc2c(cc1-c1coc3c4c(ccc3c1=O)OC(C)(C)C=C4)OCO2 [AnCoA4]
SOC dependent intracellular calcium influx, pretreatment ([1]; 50 uM, 1 minute before thapsigargin): significantly reduced
effect on intracellular calcium levels, post SOC activation treatment ([1]; 50 uM): no effect
EC50 [2]: 900 nM
CCL4 down regulation [3, 4]: ~180 folds
IL2 down regulation [3, 4]: about 6 folds
mRNA levels for most genes in comparison with the control sample ([3]; 84 genes, 50 uM pretreatment for 30 minutes, then PHA activation): significantly lower
independent up regulation of IL2 gene by compound alone ([3]; compound alone, without activation): no effects

COc1ccc(-c2coc3cc(O)cc(O)c3c2=O)cc1 [BiochaninA]
effect on intracellular calcium levels, post SOC activation treatment ([1]; 50 uM): no effect

[Cl][La]([Cl])[Cl] [LaCl, reference compound]
effect on intracellular calcium levels, post SOC activation treatment ([1]; 1 uM): quickly drop
